From US4751217A, “Physiologically active substances named SEN-366” (Nippon Shinyaku Co., Ltd., priority 1984, dated 1988)
Values after ≈ are worked out from the molar mass of the structure shown. Each block holds one molecule with its values, some of them ahead of it.

How the values were obtained:
Assay type in all cases: cell-based
[1] = tested on: platelet aggregation (ADP); assay: Inhibitory action against platelet aggregation, inducer ADP; conditions: for IC50: Oryctolagus cuniculus, Platelet, ADP 5 μM, rabbit PRP
Procedure: (§1) Inhibitory Action against Platelet Aggregation:
(§2) (1) Materials and Method:
(§3) The sample is tested after dissolved in dimethyl sulfoxide. The preparation is conducted so as to make the final concentration of the solvent 1%. Dimethyl sulfoxide of the same concentration is used as a control. As to inducers for platelet aggregation, ADP (final concentration: 5 μm), AA (arachidonic acid) (final concentration: 150 μM) and collagen (final concentration: 10 μg/ml) are used.
(§4) (2) Preparation of platelet:
(§5) Blood is taken from total neck artery of male rabbits of 2.0-2.5 kg body weight. To the blood is added 1/10 volume of 3.8% sodium citrate solution, the mixture is gently stirred, centrifuged 1300×g for 2 minutes, and the resulting supernatant liquid is used as plasma with abundant platelet (hereinafter abbreviated as PRP). The precipitate is further centrifuged at 1600×g for 10 minutes and the resulting supernatant liquid is used as plasma with poor platelet (hereinafter abbreviated as PPP).
(§6) (3) Method for Measuring Aggregation Power:
(§7) A measuring apparatus for platelet aggregation is used and the changes in absorbancy by the aggregation with an elapse of time are recorded.
(§8) Thus, 200 microliters of PRP is taken, its difference between PPP is adjusted to a certain value, then 25 microliters of control solution or test solution is added, the mixture is stirred (1000 rpm) for 1 minutes, 25 microliters of aggregation inducer is added, and the changes in absorbancy are recorded. The inhibitory ratio is calculated from the following expression from the maximum aggregation ratio of the control (A in %) and that of the test solution (B in %): [formula]
(§9) Inhibitory ratios with varied test solution concentrations are calculated and the IC50 (50% inhibitory concentration) is calculated therefrom.
as §3, with “μM),” for “μm),”
as §5, with “citric acid” for “sodium citrate”
as §8, with “minute,” for “minutes,”

[2] = tested on: platelet aggregation (AA); assay: Inhibitory action against platelet aggregation, inducer arachidonic acid (AA); conditions: for IC50: Oryctolagus cuniculus, Platelet, AA 150 μM, rabbit PRP
Procedure: as §1, §2, §3, §4, §5, §6, §7, §8, §9
as §3, with “μM),” for “μm),”
as §5, with “citric acid” for “sodium citrate”
as §8, with “minute,” for “minutes,”

[3] = tested on: platelet aggregation (collagen); assay: Inhibitory action against platelet aggregation, inducer collagen; conditions: for IC50: Oryctolagus cuniculus, Platelet, collagen 10 μg/ml, rabbit PRP
Procedure: as §1, §2, §3, §4
Blood is taken from total neck artery of male rabbits of 2.0-2.5 kg body weight. […] The precipitate is further centrifuged at 1600×g for 10 minutes and the resulting supernatant liquid is used as plasma with poor platelet (hereinafter abbreviated as PPP).
as §6, §7, §8
as §3, with “μM),” for “μm),”
as §5, with “citric acid” for “sodium citrate”
as §8, with “minute,” for “minutes,”

[4] = Table 2, rabbit PRP, listed as M4
[5] = Table 1, rabbit PRP, listed as A3
[6] = Table 2, rabbit PRP, listed as E3
[7] = Table 1, rabbit PRP, listed as BT2
[8] = Table 2, rabbit PRP, listed as E4
[9] = Table 1, rabbit PRP, listed as B4
[10] = Table 1, rabbit PRP, listed as B3

SMILES: COC1CCC(OC2CCC(OC3CCC(=O)C(C)O3)C(C)O2)C(C)O1 (stereo not drawn) [SEN-366-M4]
IC50 ADP 5 μM [1, 4]: 53.0 µg/mL (≈ 142 µM)
IC50 AA 150 μM [2, 4]: 47.0 µg/mL (≈ 126 µM)
IC50 Collagen 10 μg/ml [3, 4]: 18.0 µg/mL (≈ 48.3 µM)

SMILES: CCOC1CCC(OC2CCC(OC3CCC(=O)C(C)O3)C(C)O2)C(C)O1 (stereo not drawn) [SEN-366-E2]
IC50 ([1]; Table 2): > 100 µg/mL
IC50 ([2]; Table 2): 52 µg/mL (≈ 135 µM)
IC50 ([3]; Table 2): 22.1 µg/mL (≈ 57.2 µM)

SMILES: COC1CCC(OC2CCC(OC3CCC(=O)C(C)O3)C(C)O2)C(C)O1 (stereo not drawn) [SEN-366-M2]
IC50 ([1]; Table 2): 55 µg/mL (≈ 148 µM)
IC50 ([2]; Table 2): 42 µg/mL (≈ 113 µM)
IC50 ([3]; Table 2): 16.3 µg/mL (≈ 43.8 µM)

SMILES: CCCC(=O)OC1CCC(OC2CCC(OC3CCC(=O)C(C)O3)C(C)O2)C(C)O1 (stereo not drawn) [SEN-366-BT2]
IC50 ADP 5 μM [1, 7]: 1.35 µg/mL (≈ 3.15 µM)
IC50 AA 150 μM [2, 7]: 2.1 µg/mL (≈ 4.9 µM)
IC50 Collagen 10 μg/ml [3, 7]: 0.53 µg/mL (≈ 1.24 µM)

SMILES: CCOC1CCC(OC2CCC(OC3CCC(=O)C(C)O3)C(C)O2)C(C)O1 (stereo not drawn) [SEN-366-E4]
IC50 ADP 5 μM ([1]; Table 2, rabbit PRP): > 100 µg/mL
IC50 AA 150 μM [2, 8]: 65.0 µg/mL (≈ 168 µM)
IC50 Collagen 10 μg/ml [3, 8]: 16.5 µg/mL (≈ 42.7 µM)

SMILES: CC(=O)OC1CCC(OC2CCC(OC3CCC(=O)C(C)O3)C(C)O2)C(C)O1 (stereo not drawn) [SEN-366-A2]
IC50 ADP 5 μM ([1]; Table 1, rabbit PRP, listed as A2): 1.6 µg/mL (≈ 4 µM)
IC50 ([2]; Table 1): 6 µg/mL (≈ 15 µM)
IC50 ([3]; Table 1): 0.54 µg/mL (≈ 1.35 µM)

Results, then the molecule that gave them:

IC50 ([1]; Table 2): 7.2 µg/mL (≈ 18.7 µM)
IC50 ([2]; Table 2): 10.3 µg/mL (≈ 26.8 µM)
IC50 Collagen 10 μg/ml ([3]; Table 2, rabbit PRP, listed as E1): 2.0 µg/mL (≈ 5.2 µM)
SMILES: CCOC1CCC(OC2CCC(OC3C=CC(=O)C(C)O3)C(C)O2)C(C)O1 (stereo not drawn) [SEN-366-E1]

IC50 ([1]; Table 2): 0.3 µg/mL (≈ 0.606 µM)
IC50 ([2]; Table 2): 1.1 µg/mL (≈ 2.22 µM)
IC50 ([3]; Table 2): 0.06 µg/mL (≈ 0.121 µM)
SMILES: CC1OC(OC2CCC(OC3CCC(OC(=O)c4ccc(Cl)cc4)OC3C)OC2C)C=CC1=O (stereo not drawn) [SEN-366-CB1]

IC50 ADP 5 μM [1, 5]: 0.44 µg/mL (≈ 1.1 µM)
IC50 AA 150 μM [2, 5]: 1.6 µg/mL (≈ 4.02 µM)
IC50 Collagen 10 μg/ml [3, 5]: 0.47 µg/mL (≈ 1.18 µM)
SMILES: CC(=O)OC1CCC(OC2CCC(OC3C=CC(=O)C(C)O3)C(C)O2)C(C)O1 (stereo not drawn) [SEN-366-A3]

IC50 ADP 5 μM [1, 6]: 12.4 µg/mL (≈ 32.3 µM)
IC50 AA 150 μM [2, 6]: 14.0 µg/mL (≈ 36.4 µM)
IC50 Collagen 10 μg/ml [3, 6]: 4.4 µg/mL (≈ 11.4 µM)
SMILES: CCOC1CCC(OC2CCC(OC3C=CC(=O)C(C)O3)C(C)O2)C(C)O1 (stereo not drawn) [SEN-366-E3]

IC50 ([1]; Table 1): 0.22 µg/mL (≈ 0.552 µM)
IC50 ([2]; Table 1): 1.2 µg/mL (≈ 3.01 µM)
IC50 Collagen 10 μg/ml ([3]; Table 1, rabbit PRP, listed as A1): < 0.1 µg/mL
SMILES: CC(=O)OC1CCC(OC2CCC(OC3C=CC(=O)C(C)O3)C(C)O2)C(C)O1 (stereo not drawn) [SEN-366-A1]

IC50 ([1]; Table 1): 5.7 µg/mL (≈ 12.3 µM)
IC50 ([2]; Table 1): 1.6 µg/mL (≈ 3.46 µM)
IC50 ([3]; Table 1): 1.7 µg/mL (≈ 3.68 µM)
SMILES: CC1OC(OC2CCC(OC3CCC(OC(=O)c4ccccc4)OC3C)OC2C)CCC1=O (stereo not drawn) [SEN-366-B2]

IC50 ADP 5 μM [1, 9]: 6.5 µg/mL (≈ 14.1 µM)
IC50 AA 150 μM [2, 9]: 1.2 µg/mL (≈ 2.59 µM)
IC50 Collagen 10 μg/ml [3, 9]: 2.9 µg/mL (≈ 6.27 µM)
SMILES: CC1OC(OC2CCC(OC3CCC(OC(=O)c4ccccc4)OC3C)OC2C)CCC1=O (stereo not drawn) [SEN-366-B4]

IC50 ADP 5 μM [1, 10]: 1.0 µg/mL (≈ 2.17 µM)
IC50 AA 150 μM [2, 10]: 0.55 µg/mL (≈ 1.19 µM)
IC50 Collagen 10 μg/ml [3, 10]: 0.17 µg/mL (≈ 0.369 µM)
SMILES: CC1OC(OC2CCC(OC3CCC(OC(=O)c4ccccc4)OC3C)OC2C)C=CC1=O (stereo not drawn) [SEN-366-B3]
